Measurements as given in patent EP2271341B1, “SPECIFIC INHIBITORS FOR VASCULAR ENDOTHELIAL GROWTH FACTOR RECEPTORS” (Nova Southeastern University, priority 2008, dated 2009).

Key:
[1] = tested on: Human umbilical vein endothelial cell; experiment: In Vitro Angiogenesis Assay (morphogenesis / tube formation on Matrigel, ECMatrix kit); assay type: cell-based; design: key to Results: Individual cells, well separated (+++++); Cells begin to migrate and align themselves (++++); Cells begin to line but not sprouting (+++); Visible Sprouting (++); Closed polygons begins to form (+); conditions: for Results: score of the extent of cellular networks, HUVECs 10^4 cells/well, inhibitors 1mM and 10 mM, 8 hours incubation at 37 °C, higher score = greater inhibition of angiogenesis
Experimental: Human umbilical vein endothelial cell was purchased from Cambrex Co. (East Rutherford, New Jersey) and maintained in EGM (Endothelial Growth Medium) supplemented with 2% FBS, 0.1% EGF, 0.1% Hydrocortisone, 0.1% GA-1000 and 0.4% BBE.
The morphogenesis assay on Matrigel was performed according to the manufacturer's instructions (Chemicon International). The ECMatrix™ kit consists of laminin, collagen type IV, heparan sulfate, proteoglycans, entactin and nidogen. It also contains various growth factors (TGF-β, FGF) and proteolytic enzymes (plasminogen, tPA, MMPs) that are normally produced in EHS tumors. The incubation condition was optimized for maximal tube-formation as follows: 50µl of EC Matrix™ was suitably diluted in the ratio 9:1 with 10X diluent buffer and used for coating the 96-well plate. The coated plates were incubated at 37° C for 1 hr. to allow the Matrix solution to solidify. In the meantime the HUVECs that were cultured for 24 hours in EGM with 2% FBS was trypsinised and resuspended in the growth media and the cells were counted. After 1 hr. pre-incubation of the plate with Matrix solution, the HUVECs were plated at 10^4 cells/well in the absence or in the presence of different VEGFR inhibitors (1mM and 10 mM). After 8 hours incubation at 37 °C, the cell three-dimensional organization (cellular network structures) was examined under an inverted photomicroscope. Each treatment was performed in triplicate.
Activated endothelial cells form cellular networks (mesh like structures) resembling capillary tubes sprouting into the stromal space. The formation of these cellular networks is a dynamic process, which started migration and alignment of cells followed by the development of capillary tubes like structures, sprouting of new branches and finally the formation of the cellular networks. Although this in vitro angiogenesis kit is designed only as a qualitative assay, we have made an attempt to quantitate the degree of angiogenesis using a scoring method. The scoring was based on the extent of the cellular networks that were observed as follows: • Individual cells, well separated (+++++) • Cells begin to migrate and align themselves (++++) • Cells begin to line but not sprouting (+++) • Visible Sprouting (++) • Closed polygons begins to form (+).
According to our qualitative assessment, the higher the scoring the greater the efficiency of the compound for inhibiting endothelial cell mediated angiogenesis.

GI-101A = experiment: Cytotoxicity towards breast carcinoma cell line GI-101A; assay type: cell-based; conditions: GI-101A breast carcinoma cell line
MCF-7 = experiment: Cytotoxicity towards breast carcinoma cell line MCF-7; assay type: cell-based; conditions: MCF-7 breast carcinoma cell line
VEGFR = experiment: Assay of VEGF Receptor Tyrosine Kinase Activity (VEGFR immunoprecipitated from cell lysate, non-radioactive PTK ELISA); assay type: biochemical; conditions: VEGFR immunoprecipitated from cell lysate with VEGFR specific antibody, read-out: IC50 for inhibiting VEGFR kinase
Source text: Protein Tyrosine Kinases (PTKs) perform a critical role in signal transduction pathways that control cell proliferation, differentiation, metabolism, and apoptosis. Phosphorylation of proteins by PTKs is essential for the regulation of these biological mechanisms and defects in these pathways may result in a number of human diseases, including cancer. The important aspect of these enzymes in cellular regulation is accentuated by the fact that for a large number of kinases a corresponding viral oncogene product has been identified. […] CHEMICON's non-radioactive Tyrosine Kinase Activity Assay provides a simple, convenient and specific method for quantification and comparative determination of a wide range of PTKs. […]
The non-radioactive Tyrosine Kinase Activity Assay Kit consists of a synthetic Biotinylated Peptide Substrate, a Biotinylated Phosphopeptide, purified Phosphotyrosine specific monoclonal antibody conjugated to horseradish peroxidase (HRP) and other components required to perform 96 ELISA-based assays. […] The quantity of phosphate incorporated into the tyrosine kinase substrate is determined utilizing the phosphopeptide standard curve. […] The assay reaction would be terminated by the addition of 100 µl of stop solution and finally, the absorbance was measured on a standard microplate reader at 450nm. […]

Row | EC50 ([1]; Homo sapiens, Endothelial cell, estimated, read-out: EC50 value for anti-antigenic effect) | IC50 (VEGFR) | Structure (SMILES) | Results [1] | cytotoxicity (GI-101A) | cytotoxicity (MCF-7)
1 |  |  | CCC(CNCCO)Nc1nc2c(c(=O)n(C)c(=O)n2C)n1Cc1ccccc1 (centres unmarked) [Example 7] | ++ |  | 
2 |  |  | CCCCCCCCCCCCCCCCOc1ccc(C(NNS(=O)(=O)c2cccc(C(=O)O)c2)N2CCCCC2)cc1 (centres unmarked) [Example 2] | ++++ |  | 
3 |  |  | CCCCCCCCCCCCCCCCCCOc1ccc(C(=O)CC(=O)Nc2ccc(Sc3cccc(C(=O)O)c3)c(C(=O)O)c2)cc1 [Example 5] | +++ |  | 
4 | 250 nM | 400 nM | COc1ccc(NCC(O)Cn2cnc3c2c(=O)n(C)c(=O)n3C)cc1 (centres unmarked) [Example 1] | +++++ | produced cytotoxicity | produced cytotoxicity
